In patent US11135228B2, “Cysteinyl-proresolving mediators that promote resolution of infection and organ protection” (THE BRIGHAM AND WOMEN'S HOSPITAL, priority 2014, dated 2021):
“Also recorded” adds a separate entry of the source.

How the values were obtained:
[1] = tested on: Human neutrophils; experiment: Human neutrophil intracellular reactive oxygen species (H2DCFDA); assay type: cell-based; conditions: 10 pM-100 nM, 15 min, then E. coli 45 min
Procedure: (§1) Leukocyte phagocytosis: Macrophages were prepared from peripheral blood mononuclear cells (PBMC) purchased from Children's Hospital Blood Bank, Boston, and phagocytosis was assessed as in (11). Briefly, macrophages (5×10^4 cells,/well) were incubated with SCI (10 pM-100 nM), SCII (10 pM-100 nM), MaR1 (10 pM-100 nM), or vehicle (0.1% EtOH in DPBS) for 15 min at 37° C., then fluorescent labeled apoptotic cells were added and cells incubated 45 min at 37° C. Extracellular fluorescence was quenched using Trypan blue (1:15 dilution) and phagocytosis assessed using an M3 SpectraMax plate reader. In select experiments, macrophages (5×10^4 cells/well) or neutrophils (1×10^5 cells/well) were obtained from human healthy volunteers' peripheral blood as in (11) in accordance with Partners Human Research Committee Protocol (#1999P001297), and incubated with H2DCFDA (5 μM, 30 min, 37° C.), then with SCI (10 pM-100 nM), SCI (10 pM-100 nM) or vehicle (0.1% EtOH in DPBS, 15 min, 37° C.) and E. coli (1:50 leukocytes to E. coli, 45 min, 37° C.) Intracellular reactive oxygen species were determined by measuring fluorescence using an M3 SpectraMax plate reader. […]

[2] = tested on: Djndk, Djmpka, DjAdb-Ba; experiment: Gene expression in regenerating planaria blastemas (real-time PCR); assay type: in vivo, Dugesia japonica; conditions: 100 nM, 2 days post injury
Procedure: Whole mount in situ hybridization, real-time PCR and dsRNA synthesis: Regenerating blastemas were obtained from planaria after surgical injury and placed in Trizol (Ambion). RNA was isolated following manufacturer's instructions and cDNA was synthesized essentially as in (16) using random hexamers, Oligo(dt)20 and Superscript III (Invitrogen), Relative quantitative analysis for each gene product was carried out using an ABI 7900ht fast real-time PCR machine (Applied Biosystems). DjGapdh—Forward: […] (SEQ ID NO. 1); Reverse: […] (SEQ ID NO. 2). Djsfpr-A—Forward: […] (SEQ ID NO. 3); Reverse: […] (SEQ ID NO. 4). Djndk—Forward: […] (SEQ ID NO. 5); Reverse: […] (SEQ ID NO. 6). DjmpkA—Forward: […] (SEQ ID NO. 7); Reverse: […] (SEQ ID NO. 8). DfAdb-Ba—Forward: […] (SEQ ID NO. 9); Reverse: […] (SEQ ID NO. 10). DjGst—Forward: […] (SEQ ID NO. 11); Reverse: […] (SEQ ID NO. 12). The constitutively transcribed housekeeping gene, GAPDH, was employed to normalized target gene expression levels as in (16).
Planaria regeneration: Planaria (Dugesia japonica; Dj) were kept in water (Poland Spring) at 18° C. […] Tissue regeneration was assessed as in (12). […] The extent of tissue regeneration during a 6-day period for D. japonica was determined using captured images of the regenerating blastemas at regular intervals (24 h). These images were analyzed using ImageJ software. […]

[3] = tested on: Planaria (Dugesia japonica); experiment: Planaria tissue regeneration after surgical injury (head resection), tissue regeneration index; assay type: in vivo; conditions: for T50: either SCI or SCII alone, concentration dependent, vehicle ~5 days; for tissue regeneration / head regrowth (in words): surgically injured planaria vs vehicle
Procedure: Planaria regeneration: Planaria (Dugesia japonica; Dj) were kept in water (Poland Spring) at 18° C. All animals were starved for at least 7 days prior to experiments. Tissue regeneration was assessed as in (12). Briefly, planaria were subject to head resection post-occularly (surgical Injury). The posterior portions of the planaria were then placed in spring water containing 0.01% EtOH, SPE-C isolate fraction 2 from resolving exudates or milk at the indicated dilutions, U0126 (Extracellular signal-regulated kinases (ERK) inhibitor; Cell Signaling Technology; 25 μM (16)), U0126 plus resolving exudates SPE-C isolates fraction 2, SCI (100 nM), SCII (100 nM), lipoxygenase inhibitor (baicalein, 10 μM) or lipoxygenase inhibitor plus SCI and SCII (100 nM). The extent of tissue regeneration during a 6-day period for D. japonica was determined using captured images of the regenerating blastemas at regular intervals (24 h). These images were analyzed using ImageJ software. A tissue regeneration index (TRI) was employed that took into consideration the size of the regenerated tissue total area (A) and the post-ocular width W of the animal, where TRI=A/W. In determined experiments, planaria were injured and incubated in water, containing 10^8CFU E. coli (serotype O6:K2:H1) or with E. coli plus SCI and SCII (100 nM), and tissue regeneration indices assessed as described above.
Planaria regeneration: Planaria (Dugesia japonica) were kept in water (Poland. Spring; Nestlé Waters North America, Stamford, Conn., USA) at 18° C. All animals were starved for at least 7 d before the experiments. Tissue regeneration was assessed as described previously (10). In brief, planaria were subjected to head resection postoccularly (surgical injury). The posterior portions of the planaria were then placed in spring water containing 0.01% EtOH, 16-glutathionyl, 17-hydroxyl-4Z,7Z,10,12,14,19Z-docosahexaenoic acid plus 16-cysteinylglycinyl, 7-hydroxyl-4Z,7Z,10,12,14,19Z-docosahexaenoic acid (50 nM; each) or 8-gutathionyl, 7,17-dihydroxyl-4Z9,11,13Z,15E,19Z-docosahexaenoic acid plus 8-cysteinylglycinyl, 7,17-dihydroxyl-4Z,9,11,13Z,15E,19Z-docosahexaenoic acid (50 nM, each). The extent of tissue regeneration during a 6-d period was determined using captured images of the regenerating blastemas at regular intervals (24 h). These images were analyzed using ImageJ software (NIH, Bethesda, Md., USA). A tissue regeneration index (TRI) was used that took into consideration the size of the regenerated tissue total area (A) and the postocular width (W), where TRI=A/W (10).

[4] = tested on: Human macrophages; experiment: Human macrophage intracellular reactive oxygen species (H2DCFDA); assay type: cell-based; conditions: 10 pM-100 nM, 15 min, then E. coli 45 min
Procedure: as §1

[5] = tested on: Human macrophages; experiment: Human macrophage phagocytosis of fluorescently labeled E. coli; assay type: cell-based; conditions: 10 pM-100 nM, 15 min, then E. coli 45 min
Procedure: Leukocyte phagocytosis: Macrophages were prepared from peripheral blood mononuclear cells (PBMC) purchased from Children's Hospital Blood Bank, Boston, and phagocytosis was assessed as in (11). Briefly, macrophages (5×10^4 cells,/well) were incubated with SCI (10 pM-100 nM), SCII (10 pM-100 nM), MaR1 (10 pM-100 nM), or vehicle (0.1% EtOH in DPBS) for 15 min at 37° C., then fluorescent labeled apoptotic cells were added and cells incubated 45 min at 37° C. Extracellular fluorescence was quenched using Trypan blue (1:15 dilution) and phagocytosis assessed using an M3 SpectraMax plate reader. In select experiments, macrophages (5×10^4 cells/well) or neutrophils (1×10^5 cells/well) were obtained from human healthy volunteers' peripheral blood as in (11) in accordance with Partners Human Research Committee Protocol (#1999P001297), and incubated with H2DCFDA (5 μM, 30 min, 37° C.), then with SCI (10 pM-100 nM), SCI (10 pM-100 nM) or vehicle (0.1% EtOH in DPBS, 15 min, 37° C.) and E. coli (1:50 leukocytes to E. coli, 45 min, 37° C.) Intracellular reactive oxygen species were determined by measuring fluorescence using an M3 SpectraMax plate reader. To assess bacterial phagocytosis, macrophages (5×10^4 cells/well) or neutrophils (1×10^5 cells/well) were incubated with SCI (10 pM-100 nM), SCII (10 pM-100 nM) or vehicle (0.1% EtOH in DPBS, 15 min, 37° C.), then incubated with BacLight Green (Molecular Probes) labeled E. coli (1:50 leukocytes to E. coli, 45 min, 37° C.), Extracellular fluorescence was quenched using Trypan blue (1:15 dilution), and phagocytosis assessed using an M3 SpectraMax plate reader.
Macrophage phagocytosis was assessed using fluorescently labeled E. coli (serotype O6:K2;H1) with BacLight Green Bacterial Stain (Life Technologies, Eugene, Oreg., USA). E. coli [2.5×10^6 colony-forming units (CFL)/well] were then added to macrophages previously plated in 96-well plates (40 min at 37° C.) and incubated with 0.1-10 nM concentration of test compounds [15 min at 37° C. (pH 7.45)]. Fluorescence was measured on a SpectraMax M3 plate reader, and results were analyzed using SoftMax Pro.

| Molecule | neutrophil intracellular reactive oxygen species [1] | genes involved in head regeneration [2] | T50 [3] | tissue regeneration / head regrowth (in words) [3] | macrophage intracellular reactive oxygen species [4] | macrophage phagocytosis of E. coli [5] |
| --- | --- | --- | --- | --- | --- | --- |
| 13-glutathionyl, 14-hydroxy-docosahexaenoic acid [SCI] | enhanced; also recorded: Stimulates human | upregulated | ~3.5 days | accelerated head regrowth; also recorded: Promotes tissue | enhanced; also recorded: Stimulates human | enhanced; also recorded: Stimulates human |
| CCC=CCC=CCC(O)C(C=CC=CC=CCC=CCCC(=O)O)SCC(N)C(=O)NCC(=O)O (stereo not drawn) [SCII, 13-cysteinylglycinyl, 14-hydroxy-docosahexaenoic acid] | enhanced | upregulated | ~3.5 days | accelerated head regrowth; also recorded: Promotes tissue | enhanced | enhanced; also recorded: Stimulates human |
